pEC50, pIC50: −log10 of the molar value. In brackets after ≈: the same amount, converted by molar mass.
How the values were obtained:
[1] = Inhibition of human recombinant Phosphatidylinositol 4-kinase type 3-alpha expressed in Sf9 cells assessed as reduction in […] by pyruvate kinase and lactate dehydrogenase coupled assay
Hepatitis C virus [2] = experiment: Antiviral activity against Hepatitis C virus subtype 1a infected in HuH7 cells by cell based replicon assay; format: functional, Hepacivirus hominis; details: Huh-7
[3] = Inhibition of PI3K (unknown origin); set-up: species or system Homo sapiens
[4] = Aqueous solubility at room temperature after 24 hrs by HPLC method; format: physicochemical; details: aqueous medium
[5] = Inhibition of human recombinant Phosphatidylinositol 4-kinase type 3-beta expressed in Sf9 cells assessed as reduction in […] by pyruvate kinase and lactate dehydrogenase coupled assay
Hepatitis C virus [6] = experiment: Antiviral activity against Hepatitis C virus subtype 2a JFH-1 infected in HuH7 cells by cell based replicon assay; format: functional, Hepacivirus hominis; details: genotype 2a JFH-1, Huh-7
Hepatitis C virus [7] = experiment: Antiviral activity against Hepatitis C virus genotype 1b Con1 infected in HuH7 cells by cell based replicon assay; format: functional, Hepacivirus hominis; details: genotype 1b Con1, Huh-7
[8] = Cytotoxicity against Hepatitis C virus genotype 1b Con1 infected human HuH7 cells after 48 hrs by MTT assay; format: cell-based, Huh-7; details: HuH7 cells infected with Hepatitis C virus genotype 1b Con1

pIC50 [1]	pEC50 (Hepatitis C virus [2])	pIC50 [3]	solubility at 24 h [4] [µM]	pIC50 [5]	pEC50 (Hepatitis C virus [6])	pEC50 (Hepatitis C virus [7])	SMILES	CC50 at 48 h [8] [nM]
–	6.78	< 5.04	220 (≈ 82.8 µg/mL)	7.31	–	7.00	Cc1ccc(-c2cnc(C3CC3)o2)cc1S(=O)(=O)N[C@H]1CC[C@H](O)CC1	> 31000
–	5.68	–	–	< 5.60	–	5.17	Cc1cc(-c2cnc(C3CC3)o2)cc(S(=O)(=O)N[C@H]2CC[C@H](O)CC2)c1C	> 31000
< 5.00	7.23	5.20	–	7.74	6.43	7.34	Cc1ccc(-c2oc(C3CC3)nc2C)cc1S(=O)(=O)N[C@H]1CC[C@H](O)CC1	> 31000
< 5.00	7.18	5.09	–	7.72	6.49	7.47	COc1ccc(-c2oc(C3CC3)nc2C)cc1S(=O)(=O)N[C@H]1CC[C@H](O)CC1	> 31000
–	–	–	–	6.38	–	5.49	COc1ccc(-c2oc(C)nc2C)cc1S(=O)(=O)N[C@H]1CC[C@H](O)CC1	> 31000
–	7.07	–	–	7.55	6.83	7.39	COc1ccc(-c2oc(C3(C)CC3)nc2C)cc1S(=O)(=O)N[C@H]1CC[C@H](O)CC1	> 31000
–	–	–	–	8.05	–	7.52	COc1ccc(-c2oc(C3CCCC3)nc2C)cc1S(=O)(=O)N[C@H]1CC[C@H](O)CC1	> 31000
–	–	–	–	7.72	–	6.97	COc1ccc(-c2oc(C3CCCCC3)nc2C)cc1S(=O)(=O)N[C@H]1CC[C@H](O)CC1	> 31000
–	–	–	–	8.05	–	7.49	COc1ccc(-c2oc(C3CCC(CO)CC3)nc2C)cc1S(=O)(=O)N[C@H]1CC[C@H](O)CC1 (some centres undefined)	> 31000
–	–	–	–	7.44	–	6.40	COc1ccc(-c2oc(C3CCOCC3)nc2C)cc1S(=O)(=O)N[C@H]1CC[C@H](O)CC1	> 31000
–	–	–	–	7.10	–	7.17	COc1ccc(-c2oc(C3CC3)nc2C)cc1S(=O)(=O)CC1CCC(O)CC1 (centres undefined)	> 31000
–	–	–	–	5.01	–	5.45	COc1ccc(-c2oc(C3CC3)nc2C)cc1C(=O)N[C@H]1CC[C@H](O)CC1	> 31000
–	–	–	–	7.43	–	6.71	COc1ccc(-c2cnc(C3CC3)o2)cc1S(=O)(=O)N[C@H]1CC[C@H](O)CC1	> 31000
–	–	–	–	5.99	–	5.00	COc1ccc(-c2[nH]c(C3CC3)nc2C)cc1S(=O)(=O)N[C@H]1CC[C@H](O)CC1	> 31000

Second part, the compound before the results:

SMILES	pIC50 [1]	pEC50 (Hepatitis C virus [2])	pIC50 [3]	solubility at 24 h [4] [µM]	pIC50 [5]	pEC50 (Hepatitis C virus [6])	pEC50 (Hepatitis C virus [7])	CC50 at 48 h [8] [nM]
Cc1ccc(-c2cnc(C3CC3)o2)cc1S(=O)(=O)Nc1ccccc1Cl	< 5.00	5.80	5.62	< 2	6.87	5.74	5.99	> 31000
COc1ccc(-c2ocnc2C)cc1S(=O)(=O)N[C@H]1CC[C@H](O)CC1	–	–	–	–	5.79	–	< 5.00	> 31000
COc1ccc(-c2oc(-c3ccccc3)nc2C)cc1S(=O)(=O)N[C@H]1CC[C@H](O)CC1	–	–	–	–	7.43	–	6.71	> 31000
COc1ccc(-c2oc(-c3ccncc3)nc2C)cc1S(=O)(=O)N[C@H]1CC[C@H](O)CC1	–	–	–	–	6.72	–	6.39	> 31000
COc1ccc(-c2oc(Cc3ccccc3)nc2C)cc1S(=O)(=O)N[C@H]1CC[C@H](O)CC1	–	7.28	–	–	8.40	6.42	7.39	> 31000
COc1ccc(-c2oc(C3CC3)nc2C)cc1	–	–	–	–	< 5.60	–	< 4.52	> 31000
COc1ccc(-c2oc(C3CC3)nc2C)cc1S(C)(=O)=O	–	–	–	–	7.12	–	6.92	> 31000
COc1ccc(-c2oc(C3CC3)nc2C)cc1S(=O)(=O)Nc1cccc(C#N)c1	–	–	–	–	7.96	–	> 7.52	> 31000
COc1ccc(-c2oc(C3CC3)nc2C)cc1S(=O)(=O)NCCO	–	–	–	–	7.57	–	7.37	> 31000
COc1ccc(-c2oc(C3CC3)nc2C)cc1S(N)(=O)=O	–	–	–	–	7.19	–	7.17	> 31000
COc1ccc(-c2oc(C3CC3)nc2C)cc1S(=O)(=O)NCC(C)(C)O	–	–	–	–	7.48	–	6.94	> 31000
COc1ccc(-c2cc(C3CC3)nn2C)cc1S(=O)(=O)N[C@H]1CC[C@H](O)CC1	–	–	–	–	7.27	–	6.45	> 31000
